The supplement of paper PMC10307832

Columns and labels:
Test in all cases: relative viability (nuclei count vs DMSO), 5 days (fraction); higher = more cells survive
NCI-H1355 = tested on: NCI-H1355
Summary of the method: (§1)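 The day after seeding in 1536-well plates, lung cancer cell lines were treated by pin tool with a single drug, or with a fixed anchor-drug dose together with five library-drug doses (not always all listed) in √10 steps. After 5 days, a combined fix-and-stain solution (final 0.05% Triton X-100, 1% formaldehyde, 1 ug/ml Hoechst) was added. Nuclei counted on 4× images gave relative viability as treated counts over vehicle counts, reported as the median of duplicate plates.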

NCI-H2228 = tested on: NCI-H2228
Summary of the method: as §1

A-427 = tested on: A-427
Summary of the method: as §1

NCI-H596 = tested on: NCI-H596
Summary of the method: as §1

NCI-H3122 = tested on: NCI-H3122
Summary of the method: as §1

NCI-H1650 = tested on: NCI-H1650
Summary of the method: as §1

NCI-H1755 = tested on: NCI-H1755
Summary of the method: as §1

H3255 = tested on: H3255
Summary of the method: as §1

SW 1573 = tested on: SW 1573
Summary of the method: as §1

LK-2 = tested on: LK-2
Summary of the method: as §1

NCI-H2347 = tested on: NCI-H2347
Summary of the method: as §1

NCI-H1666 = tested on: NCI-H1666
Summary of the method: as §1

NCI-H441 = tested on: NCI-H441
Summary of the method: as §1

NCI-H520 = tested on: NCI-H520
Summary of the method: as §1

NCI-H2085 = tested on: NCI-H2085
Summary of the method: as §1

NCI-H1944 = tested on: NCI-H1944
Summary of the method: as §1

NCI-H358 = tested on: NCI-H358
Summary of the method: as §1

NCI-H838 = tested on: NCI-H838
Summary of the method: as §1

NCI-H322M = tested on: NCI-H322M
Summary of the method: as §1

NCI-H650 = tested on: NCI-H650
Summary of the method: as §1

EKVX = tested on: EKVX
Summary of the method: as §1

NCI-H460 = tested on: NCI-H460
Summary of the method: as §1

ChaGo-K-1 = tested on: ChaGo-K-1
Summary of the method: as §1

O=c1[nH]c2ccccc2n1C1CCN(CCCC(c2ccc(F)cc2)c2ccc(F)cc2)CC1 [Pimozide] + CC(=O)Nc1cccc(-n2c(=O)n(C3CC3)c(=O)c3c(Nc4ccc(I)cc4F)n(C)c(=O)c(C)c32)c1 [Trametinib] (partner 0.02 µM)
relative viability (NCI-H1355; first compound 0.08 µM): 0.382 | relative viability (NCI-H1355; first compound 0.253 µM): 0.428 | relative viability (NCI-H1355; first compound 0.8 µM): 0.411 | relative viability (NCI-H1355; first compound 2.53 µM): 0.39 | relative viability (NCI-H1355; first compound 8 µM): 0.454 | relative viability (NCI-H2228; first compound 0.08 µM): 0.514 | relative viability (NCI-H2228; first compound 0.253 µM): 0.475 | relative viability (NCI-H2228; first compound 0.8 µM): 0.522 | relative viability (NCI-H2228; first compound 2.53 µM): 0.418 | relative viability (NCI-H2228; first compound 8 µM): 0.167 | relative viability (A-427; first compound 0.08 µM): 0.771 | relative viability (A-427; first compound 0.253 µM): 0.75 | relative viability (A-427; first compound 0.8 µM): 0.701 | relative viability (A-427; first compound 2.53 µM): 0.682 | relative viability (A-427; first compound 8 µM): 0.68 | relative viability (NCI-H596; first compound 0.08 µM): 0.83 | relative viability (NCI-H596; first compound 0.253 µM): 0.763 | relative viability (NCI-H596; first compound 0.8 µM): 0.738 | relative viability (NCI-H596; first compound 2.53 µM): 0.736 | relative viability (NCI-H596; first compound 8 µM): 0.772 | relative viability (NCI-H3122; first compound 0.08 µM): 0.239 | relative viability (NCI-H3122; first compound 0.253 µM): 0.227 | relative viability (NCI-H3122; first compound 0.8 µM): 0.216 | relative viability (NCI-H3122; first compound 2.53 µM): 0.252 | relative viability (NCI-H3122; first compound 8 µM): 0.188 | relative viability (NCI-H1650; first compound 0.08 µM): 0.625 | relative viability (NCI-H1650; first compound 0.253 µM): 0.591 | relative viability (NCI-H1650; first compound 0.8 µM): 0.516 | relative viability (NCI-H1650; first compound 2.53 µM): 0.571 | relative viability (NCI-H1650; first compound 8 µM): 0.718 | relative viability (NCI-H1755; first compound 0.08 µM): 0.748 | relative viability (NCI-H1755; first compound 0.253 µM): 0.766 | relative viability (NCI-H1755; first compound 0.8 µM): 0.736 | relative viability (NCI-H1755; first compound 2.53 µM): 0.761 | relative viability (NCI-H1755; first compound 8 µM): 0.712 | relative viability (H3255; first compound 0.253 µM): 0.577 | relative viability (H3255; first compound 0.8 µM): 0.562 | relative viability (H3255; first compound 2.53 µM): 0.564 | relative viability (H3255; first compound 8 µM): 0.623 | relative viability (SW 1573; first compound 0.08 µM): 0.645 | relative viability (SW 1573; first compound 0.253 µM): 0.448 | relative viability (SW 1573; first compound 0.8 µM): 0.394 | relative viability (SW 1573; first compound 2.53 µM): 0.308 | relative viability (SW 1573; first compound 8 µM): 0.344 | relative viability (LK-2; first compound 0.08 µM): 0.717 | relative viability (LK-2; first compound 0.253 µM): 0.826 | relative viability (LK-2; first compound 0.8 µM): 0.749 | relative viability (LK-2; first compound 2.53 µM): 0.492 | relative viability (LK-2; first compound 8 µM): 0.727 | relative viability (NCI-H2347; first compound 0.08 µM): 0.288 | relative viability (NCI-H2347; first compound 0.253 µM): 0.307 | relative viability (NCI-H2347; first compound 0.8 µM): 0.287 | relative viability (NCI-H2347; first compound 2.53 µM): 0.278 | relative viability (NCI-H2347; first compound 8 µM): 0.285 | relative viability (NCI-H1666; first compound 0.08 µM): 0.888 | relative viability (NCI-H1666; first compound 0.253 µM): 0.804 | relative viability (NCI-H1666; first compound 0.8 µM): 0.835 | relative viability (NCI-H1666; first compound 2.53 µM): 0.866 | relative viability (NCI-H1666; first compound 8 µM): 0.787 | relative viability (NCI-H441; first compound 0.08 µM): 0.425 | relative viability (NCI-H441; first compound 0.253 µM): 0.463 | relative viability (NCI-H441; first compound 0.8 µM): 0.335 | relative viability (NCI-H441; first compound 2.53 µM): 0.565 | relative viability (NCI-H441; first compound 8 µM): 0.315 | relative viability (NCI-H520; first compound 0.08 µM): 0.632 | relative viability (NCI-H520; first compound 0.253 µM): 0.68 | relative viability (NCI-H520; first compound 0.8 µM): 0.627 | relative viability (NCI-H520; first compound 2.53 µM): 0.601 | relative viability (NCI-H520; first compound 8 µM): 0.54 | relative viability (NCI-H2085; first compound 0.08 µM): 0.659 | relative viability (NCI-H2085; first compound 0.253 µM): 0.625 | relative viability (NCI-H2085; first compound 0.8 µM): 0.583 | relative viability (NCI-H2085; first compound 2.53 µM): 0.404 | relative viability (NCI-H2085; first compound 8 µM): 0.399 | relative viability (NCI-H1944; first compound 0.08 µM): 0.396 | relative viability (NCI-H1944; first compound 2.53 µM): 0.346 | relative viability (NCI-H1944; first compound 8 µM): 0.409 | relative viability (NCI-H358; first compound 0.08 µM): 0.135 | relative viability (NCI-H358; first compound 0.253 µM): 0.147 | relative viability (NCI-H358; first compound 0.8 µM): 0.137 | relative viability (NCI-H358; first compound 2.53 µM): 0.13 | relative viability (NCI-H358; first compound 8 µM): 0.126 | relative viability (NCI-H838; first compound 0.08 µM): 0.536 | relative viability (NCI-H838; first compound 0.253 µM): 0.561 | relative viability (NCI-H838; first compound 0.8 µM): 0.482 | relative viability (NCI-H838; first compound 2.53 µM): 0.528 | relative viability (NCI-H838; first compound 8 µM): 0.571 | relative viability (NCI-H322M; first compound 0.08 µM): 0.402 | relative viability (NCI-H322M; first compound 0.253 µM): 0.505 | relative viability (NCI-H322M; first compound 0.8 µM): 0.538 | relative viability (NCI-H322M; first compound 2.53 µM): 0.546 | relative viability (NCI-H322M; first compound 8 µM): 0.54 | relative viability (NCI-H650; first compound 0.08 µM): 0.97 | relative viability (NCI-H650; first compound 0.253 µM): 0.962 | relative viability (NCI-H650; first compound 0.8 µM): 0.885 | relative viability (NCI-H650; first compound 2.53 µM): 1.06 | relative viability (NCI-H650; first compound 8 µM): 0.974 | relative viability (EKVX; first compound 0.253 µM): 0.294 | relative viability (EKVX; first compound 0.8 µM): 0.31 | relative viability (EKVX; first compound 2.53 µM): 0.344 | relative viability (EKVX; first compound 8 µM): 0.326 | relative viability (NCI-H460; first compound 0.08 µM): 0.239 | relative viability (NCI-H460; first compound 0.253 µM): 0.0857 | relative viability (NCI-H460; first compound 0.8 µM): 0.131 | relative viability (NCI-H460; first compound 2.53 µM): 0.185 | relative viability (NCI-H460; first compound 8 µM): 0.14 | relative viability (ChaGo-K-1; first compound 0.08 µM): 0.873 | relative viability (ChaGo-K-1; first compound 0.253 µM): 0.871 | relative viability (ChaGo-K-1; first compound 0.8 µM): 0.851 | relative viability (ChaGo-K-1; first compound 2.53 µM): 0.872 | relative viability (ChaGo-K-1; first compound 8 µM): 0.874
